Assay results published in US6608064B2, “Pharmaceutical agents for the treatment of Parkinson's disease, ADHD and microadenomas” (Pfizer Inc, priority 1998, dated 2003).

Tested on: MPTP-(1-methyl-4-phenyl-1,2,3,6-tetrahydropyridine) treated monkeys
Assay: Parkinsonian score in MPTP-treated monkeys after administration of sunipetron
Assay type: in vivo
Settings: 0.5 mg/kg or 1.0 mg/kg, rated at 4 time points vs vehicle, estimated plasma levels (FIG. 1)
Procedure: Neurol., 35:655-661, 1994, and Klockgether et al., Ann. Neurol., 30:717-723, 1991.
The behavioral effects of administration of sunipetron on parkinsonian score in MPTP-(1-methyl-4-phenyl-1,2,3,6-tetrahydropyridine) treated monkeys was determined. The methods employed are described in Greenemyre et al., supra and Klockgether et al., supra.
Briefly, parkinsonian monkeys were administered 0.5 mg/kg or 1.0 mg/kg of sunipetron and the severity of parkinsonian symptoms was rated at each of 4 time points after drug administration as compared with administration of a control solution (“Vehicle”).
The minimum effective plasma level was approximately 100 ng/ml.

O=C1CCC(=O)N1C[C@H]1CC[C@H]2CN(c3ncccn3)CCN2C1 [sunipetron]
minimum effective plasma level (reduction in parkinsonian score): approximately 100 ng/ml
plasma level at which the maximum reduction in parkinsonian score was attained: approximately 200 ng/ml
